Assay [1] in a line: Inhibitory activity against Opioid receptor delta 1 expressed in HEK293 cells. It counts as cell-based, Homo sapiens.
Assay [2] in a line: Inhibitory activity against Opioid receptor kappa 1 expressed in HEK293 cells. Format: cell-based, Homo sapiens.
Assay [3] has as its target Nociceptin receptor (Homo sapiens, UniProt P41146). The experiment in a line: Inhibitory activity against Opioid receptor like 1 expressed in HEK293 cells. Format: cell-based.
Assay [4] can be described thus: Inhibitory activity against Opioid receptor mu 1 expressed in HEK293 cells. It counts as cell-based, Homo sapiens.

The IC50 is the midpoint of a concentration-inhibition curve. Read a high IC50 as weaker potency in that assay.

A value given as a limit tells only on which side of the number the result lay.

Chain of Nociceptin receptor (P41146 whole entry): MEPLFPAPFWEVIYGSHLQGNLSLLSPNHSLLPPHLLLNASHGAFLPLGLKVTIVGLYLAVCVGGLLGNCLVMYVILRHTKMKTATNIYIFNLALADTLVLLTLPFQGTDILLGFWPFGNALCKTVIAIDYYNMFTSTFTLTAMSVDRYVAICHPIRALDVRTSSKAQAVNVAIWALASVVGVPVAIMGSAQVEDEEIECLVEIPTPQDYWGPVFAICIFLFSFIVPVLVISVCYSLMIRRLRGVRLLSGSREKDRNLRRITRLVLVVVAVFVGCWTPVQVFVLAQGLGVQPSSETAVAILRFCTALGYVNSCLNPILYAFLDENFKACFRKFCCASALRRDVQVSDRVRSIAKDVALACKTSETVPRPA

In the case of `CNCC[C@@H](Oc1ccc(O)cc1C)c1ccccc1`, the IC50 in assay [1] is 1.49 µM; in assay [2], 0.088 µM; in assay [3], more than 5 µM; in assay [4], 0.164 µM.

As for `CNCC[C@@H](Oc1ccccc1C)c1ccccc1` [ATOMOXETINE], the IC50 in assay [1] is more than 5 µM; in assay [2] it was 4.38 µM; in assay [3], more than 5 µM; in assay [4], 4.19 µM.

Source of the values: ChEMBL document CHEMBL1137140, “Synthesis and biological evaluation of the major metabolite of atomoxetine: elucidation of a partial kappa-opioid agonist effect” (Bioorg Med Chem Lett, 2004).
